Measured values taken from patent US12508280B2, “Formulations for improving gut health” (DSM IP ASSETS B.V., priority 2018, dated 2025).

Assays:
[1] = Broiler feeding trial, cecal 1H-NMR metabolomic analysis; assay type: in vivo, chickens
Description: A total of 63 samples have been provided to the Bio-NMR Group of Department of Agricultural and Food Science and Interdepartmental Centre for Industrial Agri-Food Research (CIRI) of University of Bologna, Italy, including 21 cecal samples, collected from the first time point, 21 from the second time point and 21 from the third time were available.
Preliminary analysis were performed on 63 samples subdivided as follows: control samples (A) fed with 10 mg/kg of Vit. B2, treated samples (B) fed with 50 mg/kg of Vit. B2, treated samples (C) fed with 100 mg/kg of Vit. B2. Samples were prepared for nuclear magnetic resonance (NMR) analysis by vortex mixing for 5 minutes stool with 1 mL of deionized water, followed by centrifugation for 10 minutes at 14,000 rpm and 4° C. About […] of supernatant was added to 100 μL of a D2O 1.5 M phosphate buffer solution containing 0.1% TSP (3-(trimethylsilyl)propionic acid-d4), NaN3 2 mM, set at pH 7.40. Before analysis, samples were centrifuged for 10 minutes again and then 590 uL transferred into an NMR tube.
Proton NMR (^1H-NMR) spectra were recorded at 298 K with an AVANCE III spectrometer (Bruker, Milan, Italy) operating at a frequency of 600.13 MHz. The Hydrogen Deuterium Oxide (HOD) residual signal was suppressed by presaturation, whereas broad signals from slowly tumbling molecules were removed by including a Carr-Purcell-Meiboom-Gill filter27 to a free induction decay sequence. The filter was made up by a train of 400 echoes separated by 800 μs, for a total time of 328 ms. Each spectrum was acquired by summing up 256 transients using 32 K data points over a 7211.54-Hz spectrum (for an acquisition time of 2.27 seconds). The recycle delay was set to 8 seconds, keeping into consideration the longitudinal relaxation time of the protons under investigation. Each spectrum was processed with Top Spin 3.0 (Bruker) by using an automatic command apk0.noe, which performs in one shot the baseline and phase correction and by applying a line-broadening factor of 1 Hz. […]

[2] = system: fecal microbial community; experiment: Microbiome composition by shotgun sequencing: alpha diversity (first set); assay type: cell-based, human; details: after 24 h fermentation, vs corresponding control

Row | Compound | cecal propionate (1H-NMR integral area) ([1]; groups A, B, C, T0, T1, T2) | cecal butyrate (1H-NMR integral area) ([1]; groups A, B, C, T0, T1, T2 (14, 28, 38/42 days)) | cecal uracil (1H-NMR integral area) ([1]; samples C (100 mg/kg Vit. B2) vs others) | microbiome alpha diversity (Shannon diversity index) ([2]; 0.2× dose) | microbiome alpha diversity (Shannon diversity index) ([2]; 1× dose) | microbiome alpha diversity (Shannon diversity index) ([2]; 5× dose)
1 | Cc1cc2nc3c(=O)[nH]c(=O)nc-3n(C[C@H](O)[C@H](O)[C@H](O)CO)c2cc1C [Vitamin B2, riboflavin] | A tendency to increase | not affected by both treatment and time | always higher than the others | – | – | –
2 | Vitamin E | – | – | – | increase microbiome diversity | increase microbiome diversity | increase microbiome diversity
